{"source": "patent US11293019B2", "about": "“Chimeric genome engineering molecules and methods” (GFLAS Life Sciences, Inc., priority 2017, dated 2022)", "key": {"PCR dsDNA product": {"tested_on": "PCR dsDNA product", "assay": "SpCas9 activity with 1 mM ZnSO4 / Mg2+ deficiency at different pH", "type": "biochemical", "conditions": "1 mM ZnSO4, range of pH values", "procedure": "For DNA (50 ng) NbFTa13_4 PCR product, 3 μl (150 ng) was used; for SpCas9-BPNLS (3.3 μg) 1/10 dilution (333 ng), 1.5 μl (0.5 μg) was used; for gRNA (1.5 μg) (NbFTa13_3/4-2), 1/10 dilution (150 ng), 3.5 μg (500 ng) was used; for pH (+1 mM ZnSO4, 2× cutsmart), 10 μl was used; for DW, to 20 μl was used.\nFor PCR dsDNA product, 150 ng was used; for SpCas9:BPNLS, 1 μg was used; for gRNA, 500 ng was used; for pH titration (100 mM NaCal, 50 mM Tris-HCl+1 mM ZnSO4), 10 ul was used, for DW, up to 20 μl was used.\nActivity of SpCas9 and SpCas9-mungbean nuclease chimeric polypeptide was tested in the presence of 1 mM ZnSO4 at a range of pHs."}, "[1]": {"tested_on": "PCR product (901 bp SpyCas9; 1,431 bp FnCpf1)", "assay": "Inactivation of SpyCas9 and FnCpf1 by stop solution / 1 mM ZnSO4, in vitro cleavage time course", "type": "biochemical"}, "human DHCR7": {"tested_on": "human DHCR7", "assay": "Genome editing after zinc sulfate treatment, HEK293, T7E1 assay", "type": "cell-based", "conditions": "for % indels: +RNP", "protocol": "(§1) The concentrations of 80 mM 160 mM of zinc sulfate were treated in HEK293 with Cas9 variants. HEK293 cells were harvested at 12 h, 24 h, and 48 h after zinc sulfate treatment. In terms of RNP treatment, HEK293 cells were harvested at 24 h, 36 h, and 60 h.\nas §1\nCell culture. HEK 293 cells were maintained in DMEM media with 10% Fetal bovine serum FBS and P/S, at 37° C. in CO2 incubator. 150,000 cells were transferred to a 24 well plate in […] of the growth medium a day before transfection.\nTransfection. For Cas9 variants transfection to the cells, purified each Cas9 variant protein was added to up to […] of Opti-MEM serum reduced medium in a micro tube, followed by addition of 120 ng guide RNA. The molar ratio of the guide RNA to Cas9 protein was kept nearly at 1.2:1 ratio(1). The mixture, then, mixed well by gentle tapping and incubated for 10 min at RT. In a separate tube. […] of Lipofectamin 3000 transfection reagent was added to […] of Opti-MEM and […] of the diluted transfection reagent was added to the guide RNA and Cas9 protein mixture, followed by incubation for 15 min at RT and […] mixture was added to the cells.\nGenomic DNA extraction. […] Briefly cells were washed with PBS once and treated with T.E., followed by incubation at 37, for 5 min. 1.2 ml of growth media were added to cells to harvest cell and then, spin downed at RT, 250×g, for 5 min.\nAmplification of genomic loci of human DHCR7. For amplification of genomic loci of human DHCR7, two different PCR primer pairs were used. […] Genomic DNA was amplified using specific primers and cleaned up using Wizard® SV gel and PCR clean-Up system. 200 ng PCR cleaned-up amplified DNA was added in a PCR-tube, followed by addition of […] of NEB buffer 2 with up to 9 ml of distilled water (D/W). The mixture was then re-annealed in a PCR machine using following condition: 98° C. for 5 min for denaturation; cooling down to 85° C. at −2° C./sec, in turn, to 25° C. at −0.1/sec and kept at 4° C., in order to prevent denaturation of heteroduplex formation of the amplified DNA. […] of T7E1 endonuclease was added to the mixture and incubated at 37° C. for 60 min.\nImage Analysis. For analysis of gene modification, 2% gel was used image was obtained with and Alphaimager 2200 image analysis software was used for analysis. % indel was computed with following equation: 1−((1-fraction cleaved) ½)(2)."}, "[2]": {"tested_on": "HEK293 cells and plant protoplasts", "assay": "Summary of knock-out / knock-in performance (HEK293 cells and plant protoplasts)", "type": "cell-based", "conditions": "in vitro and in vivo HEK293 cells", "description": "The apparent rates of mutations after the action of CRISPR genome editing tools are relatively low in vivo due to outperformance of error-free repair mechanisms. To enhance both the rate of indel mutation and HR recombination, genome editing tools were constructed by translational fusion of DNA modifying enzymes (DME), DNA binding protein (DBP), or terminal deoxyribonucleotidyl transferase (TdT) at either upstream or downstream of CRISPR genome editing enzymes. In one embodiment, a variant irreversibly deleted the DNA at the CRISPR enzyme-dependent double strand break sites in 5′->3′ direction, and the resulting modified ends with 3′-OH overhang can better serve HR repairs in presence of repair template. Disclosed herein are constructs that display functional enhancement of the CRISPR-Cas enzymes. […] Fifth, off-target effects in Cas9-RecJ embodied the similar efficiency to Cas9 off-targeting in whole genome sequencing and targeted deep sequencing. […] FIG. 74-FIG. 125 show said new genome editing fusion constructs, knock-out and knock-in efficiency and percent change in efficiency over a control.\nThe apparent rates of mutations after the action of CRISPR genome editing tools are relatively low in vivo due to outperformance of error-free repair mechanisms. […]"}}, "note": "Like-named read-outs stand apart in the source and are kept apart here."}
{"smiles": "O=S(=O)([O-])[O-].[Zn+2]", "note": "[ZnSO4, zinc sulfate]", "values": [{"measurement": "abolished Cas9 activity", "setting": "PCR dsDNA product", "result": "up to 90%"}, {"measurement": "uncut dsDNAs not digested any more after ZnSO4 treatment", "setting": "[1]", "result": 65, "unit": "%"}, {"measurement": "% indels", "setting": "human DHCR7; 80 ZnSO4 (mM) at 12 h, harvest 24 h", "result": 2.9, "unit": "%"}, {"measurement": "% indels", "setting": "human DHCR7; 80 ZnSO4 (mM) at 12 h, harvest 60 h", "result": 5.4, "unit": "%"}, {"measurement": "% indels", "setting": "human DHCR7; 160 ZnSO4 (mM) at 12 h, harvest 24 h", "result": 1.8, "unit": "%"}, {"measurement": "% indels", "setting": "human DHCR7; 160 ZnSO4 (mM) at 12 h, harvest 36 h", "result": 2.7, "unit": "%"}, {"measurement": "% indels", "setting": "human DHCR7; 160 ZnSO4 (mM) at 12 h, harvest 60 h", "result": 5.8, "unit": "%"}, {"measurement": "modified dsDNA detected via T7E1 assay", "setting": "human DHCR7; 48 h hpt with RNP, 80 μM ZnSO4 at 24 hpt, direct", "result": 12.62, "unit": "%"}, {"measurement": "modified dsDNA detected via T7E1 assay", "setting": "human DHCR7; 48 h hpt with RNP, 80 μM ZnSO4 at 24 hpt, media exchange", "result": 9.86, "unit": "%"}, {"measurement": "modified dsDNA detected via T7E1 assay", "setting": "human DHCR7; 48 h hpt with RNP, 160 μM ZnSO4 at 24 hpt, direct", "result": 3.68, "unit": "%"}, {"measurement": "modified dsDNA detected via T7E1 assay", "setting": "human DHCR7; 48 h hpt with RNP, 160 μM ZnSO4 at 24 hpt, media exchange", "result": 4.96, "unit": "%"}, {"measurement": "modified dsDNA detected via T7E1 assay", "setting": "human DHCR7; 72 h hpt with RNP, 80 μM ZnSO4 at 24 hpt, direct", "result": 2.8, "unit": "%"}, {"measurement": "modified dsDNA detected via T7E1 assay", "setting": "human DHCR7; 72 h hpt with RNP, 80 μM ZnSO4 at 24 hpt, media exchange", "result": 9.32, "unit": "%"}, {"measurement": "modified dsDNA detected via T7E1 assay", "setting": "human DHCR7; 72 h hpt with RNP, 160 μM ZnSO4 at 24 hpt, direct", "result": 1.87, "unit": "%"}, {"measurement": "modified dsDNA detected via T7E1 assay", "setting": "human DHCR7; 72 h hpt with RNP, 160 μM ZnSO4 at 24 hpt, media exchange", "result": 1.41, "unit": "%"}, {"measurement": "genome editing efficacy after zinc sulfate treatment", "setting": "human DHCR7; HEK293 with Cas9 variants", "result": "reduced"}, {"measurement": "quenching of Cas9 activity", "setting": "[2]", "result": "effectively quenched Cas9 activity"}, {"measurement": "HEK293 cell survival", "setting": "HEK293 cells; 0 to 120 mM zinc sulfate", "result": "allowed HEK293 cell to survive"}, {"measurement": "HEK293 cell survival", "setting": "HEK293 cells; 160 mM and 200 mM zinc sulfate", "result": "did not allow HEK293 live well without toxicity effect"}]}
